For the experiment, the system named is Staphylococcus aureus. Description: Antibacterial activity against Staphylococcus aureus CCT 4295. The format is functional, organism-based.

The source made the active and inactive calls. The calls are words filed in the database; no cut-off is given here.

With `COc1c(O)c2c(c3c1CCOC3=O)CC[C@H]1C(C)(C)CCC[C@]21C`, the result was Active.

Values taken from ChEMBL document CHEMBL1141792, “Swartziarboreol diterpenes from Swartzia langsdorffii Raddi” (J Nat Prod, 2005).
